In patent US20090209581A1, “NITROXIDES FOR USE IN TREATING OR PREVENTING IMMUNOLOGICAL DISEASES” (priority 2005, published 2009):

Legend:
[1] = system: glucocorticoid-induced leucine zipper (GILZ); assay: Gene expression in cardiac tissue of mice after Tempol administration, chip-based microarray; assay type: in vivo
Procedure: To assess the effects of Tempol on gene expression, Tempol was administered to experimental mice at a dose of 5 mg/g of food from 14 months to 31 months after birth. Mice receiving the same food without the addition of Tempol were used as a negative control. At the age of 31 months, the experimental animals were sacrificed and the hearts were surgically removed. The expression of a broad spectrum of genes in the cardiac tissue was assessed using chip-based microarray technology. Such chips are well known in the art and are widely used to assess gene expression.

[2] = system: collagen type I alpha 1 (COL1A1); assay: Gene expression in adipose tissue of mice after Tempol administration, Affymetrix MOE430A 2.0 array; assay type: in vivo
Procedure: (§1) In a further gene expression study, Tempol was administered to experimental mice at a dose of 5 g/kg of diet from 12 months through 15 months. Mice receiving the same diet without the addition of Tempol were used as a negative control. At the age of 15 months, the adipose tissue of the experimental animals was obtained. The expression of a broad spectrum of genes in the adipose tissue was assessed using chip-based microarray technology. Specifically, in this case an Affymetrix MOE430A 2.0 array, containing 12,960 genes, was employed. Such chips are well known in the art and are widely used to assess gene expression.

[3] = system: complement component 6 (C6); assay: as above; assay type: in vivo
Procedure: as §1

[4] = system: glucocorticoid-induced leucine zipper; assay: Protein level in circulating monocytes of patient after Tempol treatment; assay type: in vivo, human
Procedure: (§2) A 70-kilogram patient diagnosed with an autoimmune disease is administered a dose of 1500 mg of Tempol per day for 180 days. This may be administered in a single dose, or may be administered as a number of smaller doses over a 24-hour period: for example, three 500-mg doses at eight-hour intervals. Following treatment, the protein level of glucocorticoid-induced leucine zipper in circulating monocytes is increased, and the protein levels of complement component 6 in plasma and of collagen type 1 A1 in fibroblasts is reduced.
(§3) A 70-kilogram patient is administered a dose of 1500 mg of Tempol per day for 180 days prior to receiving an organ transplant. This may be administered in a single dose, or may be administered as a number of smaller doses over a 24-hour period: for example, three 500-mg doses at eight-hour intervals. Following treatment, the protein level of glucocorticoid-induced leucine zipper in circulating monocytes is increased, and the protein levels of complement component 6 in plasma and of collagen type 1 A1 in fibroblasts is reduced.

[5] = system: complement component 6; assay: Protein level in plasma of patient after Tempol treatment; assay type: in vivo, human
Procedure: as §2, §3

[6] = system: collagen type 1 A1; assay: Protein level in fibroblasts of patient after Tempol treatment; assay type: in vivo, human
Procedure: as §2, §3

[7] = 5 g/kg of diet from 12 through 15 months, microarray signal
[8] = Example 1: patient with autoimmune disease, 1500 mg per day for 180 days
[9] = Example 2: 1500 mg per day for 180 days prior to organ transplant

SMILES: CC1(C)CC(O)CC(C)(C)N1[O] [Tempol, 4-hydroxy-2,2,6,6-tetramethylpiperidine-1-oxyl]
- GILZ Fold change ([1]; TEMPOL-treated vs control mice, upregulated gene): 2.3
- GILZ (AA097711) expression, TEMPOL-treated mice tp51 ([1]; mouse tp51, 5 mg/g of food from 14 to 31 months, microarray signal): 83
- GILZ (AA097711) expression, TEMPOL-treated mice tp52 ([1]; mouse tp52, 5 mg/g of food from 14 to 31 months, microarray signal): 33
- GILZ (AA097711) expression, TEMPOL-treated mice tp53 ([1]; mouse tp53, 5 mg/g of food from 14 to 31 months, microarray signal): 4
- COL1A1 expression, Mean (Tempol-treated mice) [2, 7]: 1688
- COL1A1 Fold change ([2]; Tempol-treated vs control mice): −1.28
- C6 expression, Mean (Tempol-treated mice) [3, 7]: 337
- C6 Fold change ([3]; Tempol-treated vs control mice): −1.85
- C6 expression decrease ([3]; Tempol-treated vs control mice): decrease in expression
- protein level of glucocorticoid-induced leucine zipper in circulating monocytes [4, 8]: increased
- protein level of glucocorticoid-induced leucine zipper in circulating monocytes [4, 9]: increased
- protein level of complement component 6 in plasma [5, 8]: reduced
- protein level of complement component 6 in plasma [5, 9]: reduced
- protein level of collagen type 1 A1 in fibroblasts [6, 8]: reduced
- protein level of collagen type 1 A1 in fibroblasts [6, 9]: reduced
